Laboratory results published in US8247211B2, “Glycopeptide antibiotics” (American Cyanamid Company, priority 2001, dated 2012).

Key:
Experiment in all cases: In vitro antibacterial evaluation: minimum inhibitory concentration (MIC), broth dilution method
Type in all cases: cell-based
[1] = tested on: Staphylococcus sp.; settings: for MIC Staphylococcus aureus (ATCC 29213): strain ATCC 29213; for MIC Staphylococcus aureus (GC 1131): strain GC 1131; for MIC Staphylococcus aureus (GC 3051): strain GC 3051; for MIC Staphylococcus aureus (GC 3053): strain GC 3053; for MIC Staphylococcus aureus (GC 4541): strain GC 4541; for MIC Staphylococcus aureus (GC 4542): strain GC 4542; for MIC Staphylococcus aureus (GC 4544): strain GC 4544; for MIC Staphylococcus aureus (GC 4545): strain GC 4545
Procedure, shortened: (§1)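 Broth dilution per NCCLS M7-A2 in Muller-Hinton II […], inoculum 5×10^5 CFU/mL, antibiotic tested over 64-0.06 μg/mL. MIC is taken as the lowest concentration that inhibits growth. Panel includes recent clinical isolates resistant to methicillin, penicillin and/or vancomycin.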

[2] = tested on: Streptococcus sp.; settings: broth dilution, 5×10^5 CFU/mL, 18 hours at 35° C.
Procedure, shortened: as §1

[3] = tested on: Enterococcus sp.; settings: broth dilution, 5×10^5 CFU/mL, 18 hours at 35° C.
Procedure, shortened: as §1

[4] = tested on: Escherichia coli; settings: 5×10^5 CFU/mL, 18 hours at 35° C.
Procedure, shortened: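 Inoculum: 5×10^5 CFU/mL. Range: 64-0.06 μg/mL. Medium: Muller-Hinton II […]; NCCLS M7-A2 broth dilution. Endpoint: lowest concentration inhibiting growth. Strains include methicillin-, penicillin- and/or vancomycin-resistant clinical isolates.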

[5] = broth dilution, 5×10^5 CFU/mL, 18 hours at 35° C.
[6] = broth dilution, 18 hours at 35° C.
[7] = strain GC 4543, broth dilution, 18 hours at 35° C.
[8] = strain GC 4546, broth dilution, 18 hours at 35° C.
[9] = strain GC 4547, broth dilution, 18 hours at 35° C.
[10] = strain GC 4548, broth dilution, 18 hours at 35° C.
[11] = strain GC 4549, broth dilution, 18 hours at 35° C.
[12] = strain GC 4551, broth dilution, 18 hours at 35° C.
[13] = strain GC 6257, broth dilution, 18 hours at 35° C.

CC(c1ccccc1)C1NC(=O)CNC(=O)C(CO)NC(=O)C(C(O)C2CNC(=N)N2C2OC(CO)C(O)C(O)C2O)NC(=O)C(C(O)C2CNC(=N)N2)NC(=O)C(Cc2ccc(OC3OC(CO)C(OC4OC5COC(c6cccs6)OC5C(O)C4O)C(O)C3O)cc2)NC1=O (stereo not drawn) [Example 132, Cyclo[glycyl-β-methylphenylalanyl-O-[4-O-[4,6-O-(2-thienylmethylene)hexopyranosyl]-hexopyranosyl]tyrosyl-3-(2-iminoimidazolidin-4-yl)seryl-3-(3-hexopyranosyl-2-iminoimidazolidin-4-yl)serylseryl]]
1 µg/mL: MIC Coagulase Negative Staphylococcus (GC 4548) [1, 5] | MIC Coagulase Negative Staphylococcus (GC 4549) [1, 5] | MIC Coagulase Negative Staphylococcus (GC 6257) [1, 5] | MIC Staphylococcus haemolyticus (GC 4546) [1, 5] | MIC Staphylococcus haemolyticus (GC 4546) [1, 8] | MIC Coagulase Negative Staphylococcus (GC 4548) [1, 10] | MIC Coagulase Negative Staphylococcus (GC 4549) [1, 11] | MIC Coagulase Negative Staphylococcus (GC 6257) [1, 13] | MIC Escherichia coli (GC 4560) [4]
0.12 µg/mL: MIC Streptococcus pneumoniae (GC 1894) [2]
16 µg/mL: MIC Enterococccus avium (GC 4558) [3] | MIC Enterococccus faecalis (GC 3059) [3] | MIC Enterococccus faecalis (GC 4553) [3]
0.5 µg/mL: MIC Streptococcus agalactiae (GC 4564) [2] | MIC Streptococcus pyogenes (GC 4563) [2]
8 µg/mL: MIC Enterococccus faecalis (ATCC 29212) [3] | MIC Enterococccus faecalis (GC 2691) [3] | MIC Enterococccus faecalis (GC 4552) [3] | MIC Enterococccus faecalis (GC 4554) [3] | MIC Enterococccus faecalis (GC 6189) [3] | MIC Enterococccus faecium (GC 2243) [3] | MIC Enterococccus faecium (GC 4556) [3] | MIC Enterococcus faecalis (GC 2242) [3]
0.25 µg/mL: MIC Streptococcus pneumoniae (GC 4565) [2] | MIC Streptococcus pneumonine (ATCC 6301) [2]
32 µg/mL: MIC Escherichia coli (GC 4559) [4]
2 µg/mL: MIC Coagulase Negative Staphylococcus (GC 4547) [1, 5] | MIC Coagulase Negative Staphylococcus (GC 4551) [1, 5] | MIC Staphylococcus aureus-SMITH (GC 4543) [1, 5] | MIC Staphylococcus aureus (GC 1131) [1] | MIC Staphylococcus aureus (GC 1131) [1, 6] | MIC Staphylococcus aureus (GC 3051) [1] | MIC Staphylococcus aureus (GC 3051) [1, 6] | MIC Staphylococcus aureus (GC 4541) [1] | MIC Staphylococcus aureus (GC 4541) [1, 6] | MIC Staphylococcus aureus (GC 4542) [1] | MIC Staphylococcus aureus (GC 4542) [1, 6] | MIC Staphylococcus aureus-SMITH (GC 4543) [1, 7] | MIC Staphylococcus aureus (GC 4545) [1] | MIC Staphylococcus aureus (GC 4545) [1, 6] | MIC Coagulase Negative Staphylococcus (GC 4547) [1, 9] | MIC Coagulase Negative Staphylococcus (GC 4551) [1, 12]
4 µg/mL: MIC Staphylococcus aureus (ATCC 29213) [1] | MIC Staphylococcus aureus (ATCC 29213) [1, 6] | MIC Staphylococcus aureus (GC 3053) [1] | MIC Staphylococcus aureus (GC 3053) [1, 6] | MIC Staphylococcus aureus (GC 4544) [1] | MIC Staphylococcus aureus (GC 4544) [1, 6] | MIC Enterococccus faecium (GC 4557) [3]
>64 µg/mL: MIC Escherichia coli (ATCC 25922) [4]

CC(c1ccccc1)C1NC(=O)CNC(=O)C(CO)NC(=O)C(C(O)C2CNC(=N)N2C2OC(CO)C(O)C(O)C2O)NC(=O)C(C(O)C2CNC(=N)N2)NC(=O)C(Cc2ccc(OC3OC(CO)C(OC4OC5COC(c6ccsc6)OC5C(O)C4O)C(O)C3O)cc2)NC1=O (stereo not drawn) [Example 133, Cyclo[glycyl-β-methylphenylalanyl-O-[4-O-[4,6-O-(3-thienylmethylene)hexopyranosyl]-hexopyranosyl]tyrosyl-3-(2-iminoimidazolidin-4-yl)seryl-3-(3-hexopyranosyl-2-iminoimidazolidin-4-yl)serylseryl]]
<0.5 µg/mL: MIC Coagulase Negative Staphylococcus (GC 4548) [1, 5] | MIC Coagulase Negative Staphylococcus (GC 4548) [1, 10] | MIC Streptococcus agalactiae (GC 4564) [2] | MIC Streptococcus pneumoniae (GC 1894) [2] | MIC Streptococcus pneumonine (ATCC 6301) [2] | MIC Streptococcus pyogenes (GC 4563) [2] | MIC Escherichia coli (GC 4560) [4]
64 µg/mL: MIC Escherichia coli (ATCC 25922) [4]
32 µg/mL: MIC Escherichia coli (GC 4559) [4]
2 µg/mL: MIC Staphylococcus aureus (GC 1131) [1] | MIC Staphylococcus aureus (GC 1131) [1, 6] | MIC Staphylococcus aureus (GC 4542) [1] | MIC Staphylococcus aureus (GC 4542) [1, 6] | MIC Staphylococcus aureus (GC 4544) [1] | MIC Staphylococcus aureus (GC 4544) [1, 6] | MIC Enterococccus faecium (GC 4557) [3]
1 µg/mL: MIC Coagulase Negative Staphylococcus (GC 4547) [1, 5] | MIC Coagulase Negative Staphylococcus (GC 4549) [1, 5] | MIC Coagulase Negative Staphylococcus (GC 4551) [1, 5] | MIC Coagulase Negative Staphylococcus (GC 6257) [1, 5] | MIC Staphylococcus aureus-SMITH (GC 4543) [1, 5] | MIC Staphylococcus haemolyticus (GC 4546) [1, 5] | MIC Staphylococcus aureus (ATCC 29213) [1] | MIC Staphylococcus aureus (ATCC 29213) [1, 6] | MIC Staphylococcus aureus (GC 3051) [1] | MIC Staphylococcus aureus (GC 3051) [1, 6] | MIC Staphylococcus aureus (GC 4541) [1] | MIC Staphylococcus aureus (GC 4541) [1, 6] | MIC Staphylococcus aureus-SMITH (GC 4543) [1, 7] | MIC Staphylococcus aureus (GC 4545) [1] | MIC Staphylococcus aureus (GC 4545) [1, 6] | MIC Staphylococcus haemolyticus (GC 4546) [1, 8] | MIC Coagulase Negative Staphylococcus (GC 4547) [1, 9] | MIC Coagulase Negative Staphylococcus (GC 4549) [1, 11] | MIC Coagulase Negative Staphylococcus (GC 4551) [1, 12] | MIC Coagulase Negative Staphylococcus (GC 6257) [1, 13]
8 µg/mL: MIC Enterococccus avium (GC 4558) [3] | MIC Enterococccus faecalis (ATCC 29212) [3] | MIC Enterococccus faecalis (GC 2691) [3] | MIC Enterococccus faecalis (GC 3059) [3] | MIC Enterococccus faecalis (GC 4552) [3] | MIC Enterococccus faecalis (GC 4553) [3] | MIC Enterococccus faecalis (GC 4554) [3] | MIC Enterococccus faecium (GC 2243) [3] | MIC Enterococccus faecium (GC 4556) [3]
4 µg/mL: MIC Staphylococcus aureus (GC 3053) [1] | MIC Staphylococcus aureus (GC 3053) [1, 6] | MIC Streptococcus pneumoniae (GC 4565) [2] | MIC Enterococccus faecalis (GC 6189) [3] | MIC Enterococcus faecalis (GC 2242) [3]
